Some results are limits rather than exact numbers.

The target of assay [1] is T1, Axl (Homo sapiens, UniProt P30530).
T1 sequence (P30530 26-894): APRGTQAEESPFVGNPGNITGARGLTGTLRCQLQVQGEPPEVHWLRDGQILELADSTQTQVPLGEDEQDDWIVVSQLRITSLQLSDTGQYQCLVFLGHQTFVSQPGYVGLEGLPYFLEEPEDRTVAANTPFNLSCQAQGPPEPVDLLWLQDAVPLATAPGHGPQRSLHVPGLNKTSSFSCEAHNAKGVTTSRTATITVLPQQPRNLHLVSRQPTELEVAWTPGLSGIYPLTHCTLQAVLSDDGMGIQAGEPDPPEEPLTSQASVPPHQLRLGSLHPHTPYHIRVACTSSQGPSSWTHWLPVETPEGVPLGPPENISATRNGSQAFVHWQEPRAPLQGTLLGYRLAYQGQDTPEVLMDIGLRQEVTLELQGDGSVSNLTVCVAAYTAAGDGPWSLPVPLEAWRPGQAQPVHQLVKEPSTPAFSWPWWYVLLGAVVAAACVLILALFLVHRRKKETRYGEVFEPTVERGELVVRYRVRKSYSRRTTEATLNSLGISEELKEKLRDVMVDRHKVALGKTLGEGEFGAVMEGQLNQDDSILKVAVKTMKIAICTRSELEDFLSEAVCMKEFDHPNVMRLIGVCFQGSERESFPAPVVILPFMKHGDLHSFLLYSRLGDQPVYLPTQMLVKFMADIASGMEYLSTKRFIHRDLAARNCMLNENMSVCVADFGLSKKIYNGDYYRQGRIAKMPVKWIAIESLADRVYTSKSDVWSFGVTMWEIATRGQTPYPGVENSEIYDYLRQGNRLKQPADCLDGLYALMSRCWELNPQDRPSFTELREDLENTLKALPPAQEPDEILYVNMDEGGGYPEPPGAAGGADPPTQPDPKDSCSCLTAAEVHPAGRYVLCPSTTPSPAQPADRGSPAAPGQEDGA
As to the kind of experiment: LanthaScreen Eu kinase binding assay for Axl. The note with it: read-out: Axl kinase binding activity (Kd). In outline:
(§1)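 Competitive displacement of Alexa Fluor 647-labeled Tracer 236 from the kinase, with binding detected by TR-FRET with a Eu-labeled anti-GST antibody. Compounds were run as 8-step DMSO serial dilutions and incubated 1 h at room temperature. Kd was calculated relative to DMSO vehicle control wells.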

Assay [2] concerns the target T2, Mer (Homo sapiens, UniProt Q12866).
T2 construct: purchased Life Technologies
T2 sequence (Q12866 21-999): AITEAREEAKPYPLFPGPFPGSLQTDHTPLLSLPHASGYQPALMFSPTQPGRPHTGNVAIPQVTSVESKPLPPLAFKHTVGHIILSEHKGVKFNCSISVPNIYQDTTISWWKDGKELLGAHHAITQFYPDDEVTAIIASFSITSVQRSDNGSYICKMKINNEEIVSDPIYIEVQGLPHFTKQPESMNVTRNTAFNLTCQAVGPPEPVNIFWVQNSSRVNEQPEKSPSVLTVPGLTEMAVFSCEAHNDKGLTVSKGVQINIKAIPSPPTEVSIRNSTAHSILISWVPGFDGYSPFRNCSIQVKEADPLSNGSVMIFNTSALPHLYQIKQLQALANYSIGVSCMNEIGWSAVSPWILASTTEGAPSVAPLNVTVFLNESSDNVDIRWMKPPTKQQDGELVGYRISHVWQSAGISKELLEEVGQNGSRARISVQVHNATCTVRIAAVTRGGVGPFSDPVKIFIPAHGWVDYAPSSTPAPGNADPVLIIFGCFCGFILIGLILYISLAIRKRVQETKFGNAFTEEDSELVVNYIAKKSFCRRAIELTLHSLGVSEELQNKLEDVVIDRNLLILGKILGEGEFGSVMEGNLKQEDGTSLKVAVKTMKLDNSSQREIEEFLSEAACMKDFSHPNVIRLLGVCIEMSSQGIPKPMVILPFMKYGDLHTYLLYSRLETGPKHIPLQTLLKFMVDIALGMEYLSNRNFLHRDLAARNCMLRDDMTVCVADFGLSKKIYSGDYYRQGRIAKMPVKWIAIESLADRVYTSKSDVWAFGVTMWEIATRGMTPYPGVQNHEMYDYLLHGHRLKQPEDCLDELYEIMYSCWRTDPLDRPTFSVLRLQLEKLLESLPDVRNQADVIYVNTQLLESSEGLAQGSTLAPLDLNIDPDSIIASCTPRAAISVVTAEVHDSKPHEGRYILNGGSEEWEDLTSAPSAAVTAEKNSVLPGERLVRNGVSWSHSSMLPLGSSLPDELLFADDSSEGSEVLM
As to the kind of experiment: LanthaScreen Eu kinase binding assay for Mer. The note with it: read-out: Mer kinase binding activity (Kd). In outline:
as §1

For the compound `COc1cc2nccc(Oc3ccc(NC(=O)c4nn(C5CCOC5)cc4OCC(F)(F)F)c(F)c3)c2cc1OC` (centres unmarked) [Compound 77], the Kd in assay [1] and in assay [2] was less than 100 nM in each case.
Take `COCCn1cc(OCC(F)(F)F)c(C(=O)Nc2ccc(Oc3ccnc4cc(OC)c(OC)cc34)c(C)c2)n1` [Compound 84]: the Kd in assay [1] and in assay [2] was less than 100 nM each time.
With `COc1cc2nccc(Oc3ccc(NC(=O)c4nn(C5CC5)cc4OCC(F)(F)F)nc3)c2cc1OC` [Compound 5], the Kd in assay [1] and in assay [2] was less than 100 nM throughout.
Consider `COc1cc2nccc(Oc3ccc(NC(=O)c4nn(C5CCN(C)C5)cc4OCC(F)(F)F)nc3)c2cc1OC` (centres unmarked) [Compound 91], for which the Kd in assay [1] and in assay [2] was less than 100 nM throughout.
As for `COc1cc2nccc(Oc3ccc(NC(=O)c4nn(CC(C)O)cc4OCC(F)(F)F)cc3F)c2cc1OC` (centres unmarked) [Compound 80], the Kd in assay [1] and in assay [2] was less than 100 nM in each case.
On to `COc1cc2nccc(Oc3ccc(NC(=O)c4nn(CCC5CCCC5)cc4OCC(F)(F)F)nc3)c2cc1OC` [Compound 93], for which the Kd in assay [1] and in assay [2] was less than 100 nM in each case.
For `COc1cc2nccc(Oc3ccc(NC(=O)c4nn(C5CCNC5)cc4OCC(F)(F)F)cc3)c2cc1OC` (centres unmarked) [Compound 86], the Kd in assay [1] and in assay [2] was 100 to 500 nM in each case.
In the case of `COc1cc2nccc(Oc3ccc(NC(=O)c4nn(C5CCNC5)cc4OCC(F)(F)F)cc3F)c2cc1OC` (centres unmarked) [Compound 78], the dissociation constant Kd is less than 100 nM in assay [1] and 100 to 500 nM in assay [2].
The corresponding values for `COc1cc2nccc(Oc3ccc(NC(=O)c4nn(CC5COC5)cc4OCC(F)(F)F)c(F)c3)c2cc1OC` [Compound 95] are less than 100 nM and less than 100 nM.
Take `COc1cc2nccc(Oc3ccc(NC(=O)c4nn(CCN)cc4OCC(F)(F)F)cc3C)c2cc1OC` [Compound 82]: the Kd was not below 500 nM in assay [1] and 100 to 500 nM in assay [2].
The corresponding values for `COc1cc2nccc(Oc3ccc(NC(=O)c4nn(CCN)cc4OCC(F)(F)F)cc3)c2cc1OC` [Compound 88] are 100 to 500 nM and 100 to 500 nM.
Take `COc1cc2nccc(Oc3ccc(NC(=O)c4nn(CC(C)O)cc4OCC(F)(F)F)cc3C)c2cc1OC` (centres unmarked) [Compound 83]: the Kd in assay [1] and in assay [2] was less than 100 nM throughout.
With `COc1cc2nccc(Oc3ccc(NC(=O)c4nn(CCN)cc4OCC(F)(F)F)cc3F)c2cc1OC` [Compound 79], the Kd in assay [1] and in assay [2] was less than 100 nM in each case.
As for `COc1cc2nccc(Oc3ccc(NC(=O)c4nn(CC(C)O)cc4OCC(F)(F)F)cc3)c2cc1OC` (centres unmarked) [Compound 89], the Kd in assay [1] and in assay [2] was less than 100 nM in each case.
As to `COc1cc2nccc(Oc3ccc(NC(=O)c4nn(CC(C)C)cc4OCC(F)(F)F)cc3)c2cc1OC` [Compound 87], the Kd in assay [1] and in assay [2] was less than 100 nM in each case.
On to `COc1cc2nccc(Oc3ccc(NC(=O)c4nn(C5CCN(C)C5)cc4OCC(F)(F)F)c(F)c3)c2cc1OC` (centres unmarked) [Compound 94], for which the Kd in assay [1] and in assay [2] was less than 100 nM each time.
With `COc1cc2nccc(Oc3ccc(NC(=O)c4nn(C5CCOC5)cc4OCC(F)(F)F)cc3C)c2cc1OC` (centres unmarked) [Compound 85], the Kd in assay [1] and in assay [2] was less than 100 nM throughout.
In the case of `COc1cc2nccc(Oc3ccc(NC(=O)c4nn(C5CCOCC5)cc4OCC(F)(F)F)nc3)c2cc1OC` [Compound 90], the Kd in assay [1] and in assay [2] was less than 100 nM throughout.
Regarding `COc1cc2nccc(Oc3ccc(NC(=O)c4nn(C5CCNC5)cc4OCC(F)(F)F)cc3C)c2cc1OC` (centres unmarked) [Compound 81], the equilibrium dissociation constant (Kd) in assay [1] is not below 500 nM; in assay [2], 100 to 500 nM.

The record behind these values is US12162858B2, “Quinoline derivatives as inhibitors of AXL/MER RTK and CSF1R” (QURIENT CO., LTD., priority 2018, dated 2024).
